Literature values as cited in article PMC8900053, “Selumetinib in combination with dexamethasone for the treatment of relapsed/refractory RAS-pathway mutated paediatric and adult acute lymphoblastic leukaemia (SeluDex): study protocol for an international, parallel-group, dose-finding with expansion phase I/II trial” (BMJ Open, 2022).

Assays:
[1] = human, in vivo
[2] = early information from clinical studies
[3] = common side effect of selumetinib

| Structure (SMILES) | Tolerability of pulsed dosing versus continuous dosing [1] | Chance that blurred vision may affect daily living (blurred vision mild or moderate in all reported previous cases) | Being sick (people affected) [3] | Diarrhoea (people affected) [3] | Feeling sick (people affected) [3] | Feeling tired or weak (people affected) [3] | Shortness of breath (people affected) [3] | Skin rash, which may be itchy (people affected) [3] | Swelling of the hands or feet (people affected) [3] | Tolerability (more than 3,080 people have had the drug so far) | Swelling of the face or extremities (patients receiving selumetinib) | Skin rash cases that can be more serious and require treatment (share of skin rash cases, majority of events are mild) | Blood levels of selumetinib in people of Asian origin versus non-Asian subjects [2] |
| --- | --- | --- | --- | --- | --- | --- | --- | --- | --- | --- | --- | --- | --- |
| C[C@@H]1C[C@H]2[C@@H]3CCC4=CC(=O)C=C[C@]4(C)[C@@]3(F)[C@@H](O)C[C@]2(C)[C@@]1(O)C(=O)CO [dexamethasone] | better tolerated |  |  |  |  |  |  |  |  |  |  |  |  |
| Cn1cnc2c(F)c(Nc3ccc(Br)cc3Cl)c(C(=O)NOCCO)cc21 [selumetinib] |  | about 5% | ~30% | ~50% | ~50% | ~40% | ~20% | ~70% | ~30% | very well tolerated | commonly reported | around 10% | higher |
